Calls of active or inactive are those of the source. How the calls were made is not given here.
Each compound was assayed on S. cerevisiae tim10-1 mutant growth, luminescence (assay: growth inhibitors of tim10-1 mutant yeast, dose response, luminescence, S. cerevisiae, uHTS hits (AID 493003);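 further: yeast growth measured after about 22 hours at 25 °C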).

`O=S(=O)(c1ccc2c(c1)OCCO2)N1CCC(O)(c2ccc(Cl)cc2)CC1` and `CC(C)c1ccc(S(=O)(=O)N2CCN(CC(=O)Nc3ccc4c(c3)OCO4)CC2)cc1` are within 1.5-fold of each other in IC50: 67.1 µM for the first, 75.4 µM for the second.

`Fc1cc(F)cc(Nc2nc(Cl)nc(NC3CCCC3)n2)c1` and `CCC1CCCCN1c1nc(-c2ccncc2)nc2ccccc12` (stereo not drawn) are within 1.5-fold of each other in IC50: 37.7 µM for the first, 34.3 µM for the second.

First: O=C1CN(C(=O)/C=C/c2cccc(Cl)c2)c2ccccc2N1
Second: CCSc1nc2ccccc2n1C(=O)/C=C\c1ccc(OC)c(OC)c1
The IC50 of the first is 2.9-fold higher: 30.3 µM for the first, 10.4 µM for the second. The second is the more potent here.

First: COc1ccc(NC(C)(C)c2nnnn2-c2c(C)cccc2C)cc1
Second: COc1ccc(C2(O)CC3CCC(C2)N3c2cc(C)nc(-c3ccccc3)n2)cc1 (stereo not drawn)
The IC50 of the first is 2-fold higher: 36.1 µM for the first, 18.2 µM for the second. The second is the more potent here.

Going from `CCCc1cc(NCC2CCCO2)n2c(nc3ccccc32)c1C#N` (stereo not drawn) to `Cc1ccccc1NC1=NC(=S)N(c2ccccc2)C12CCCCC2`, the IC50 falls from 26.7 µM to 14.7 µM (1.8-fold).

Compared with `O=C(Nc1cc(Sc2ccccn2)cc([N+](=O)[O-])c1)c1cccc(Cl)c1`, `O=[N+]([O-])c1ccc(Sc2cccc3cccnc23)c([N+](=O)[O-])c1` is 2.3-fold higher in IC50: 34.9 µM for the first, 78.7 µM for the second. The first is the more potent here.

Compared with `CCOc1ccc(-c2n[nH]c(C)c2Oc2ccc(OC)cc2)c(O)c1`, `COc1ccc(C2NC(=S)NC3=C2CCc2cc(OC)ccc23)cc1` (stereo not drawn) is 2.2-fold higher in IC50: 16.4 µM for the first, 36.7 µM for the second. The first is the more potent here.

`Cc1cccc(NC(=S)N/N=C2/CCCCc3ccccc32)c1` and `O=C(NNC(=S)Nc1cccc(C(F)(F)F)c1)c1ccc(Cl)cc1Cl` are within 1.5-fold of each other in IC50: 9.98 µM for the first, 8.5 µM for the second.

First: O=[N+]([O-])c1ccccc1N/N=C/c1c[nH]c2ccccc12
Second: O=Cc1c[nH]c2cccc(OCc3ccccc3)c12
The IC50 of the first is 2-fold lower: 13.8 µM for the first, 27.4 µM for the second. The first is the more potent here.

`CCCCCCSc1ccc([C@H]2N[C@@](C)(C(=O)OC)[C@H]3C(=O)N(C)C(=O)[C@@H]23)cc1` and `CC1CCN(C(=O)CCc2ccc(Oc3cc([N+](=O)[O-])cc([N+](=O)[O-])c3)cc2)CC1` are within 1.5-fold of each other in IC50: 53.2 µM for the first, 50.1 µM for the second.

`CC1CCN(c2ccccc2NC(=S)NC(=O)C(C)(C)C)CC1` and `COC(=O)N1C(=O)[C@@](c2ccccc2)(C2CCCCC2)N1C(=O)OC` are within 1.5-fold of each other in IC50: 75.8 µM for the first, 61.7 µM for the second.

`Cc1c(Cl)c([N+](=O)[O-])nn1Cc1ccc(C(=O)Nc2ccc(Cl)cn2)o1` and `Cc1nn(Cc2ccc(Cl)cc2)c(C)c1NC(=O)c1ccc([N+](=O)[O-])cc1` are within 1.5-fold of each other in IC50: 47.6 µM for the first, 34.2 µM for the second.

`NS(=O)(=O)c1ccc(NC(=S)Nc2ccc(Br)c(Cl)c2)cc1` and `C=CCc1cccc(CNc2ccc(Br)cc2)c1O` are within 1.5-fold of each other in IC50: 31.8 µM for the first, 21.8 µM for the second.

Going from `COc1cc(OC)c(C(=O)O/N=C(\N)c2cccc(C)c2)cc1OC` to `COc1ccccc1C/C(N)=N/OC(=O)COc1ccccc1C`, the IC50 rises from 17.7 µM to 38 µM (2.1-fold). The first is the more potent here.

Compared with `O=C1CC(Sc2cccs2)C(=O)N1c1ccccc1` (stereo not drawn), `O=C1CC(N2CC=C(c3ccccc3)CC2)C(=O)N1c1ccc(F)cc1` (stereo not drawn) is 2.1-fold lower in IC50: 30.7 µM for the first, 14.7 µM for the second.

`Cc1ccc(-c2cc(-c3cccc(F)c3)n[nH]2)c(O)c1` and `CCC(=O)Oc1ccc(-c2nc(-c3cccnc3)no2)cc1` are within 1.5-fold of each other in IC50: 40.4 µM for the first, 43.4 µM for the second.

`C[C@@H]1CC=C[C@H]2[C@H]1C(=O)N(Cc1ccccc1)[C@H]2c1ccc(-c2ccoc2)cc1F` and `OC(COc1ccc2ccccc2c1Br)Cn1cnc(-c2ccccc2)c1` (stereo not drawn) are within 1.5-fold of each other in IC50: 12.4 µM for the first, 18.1 µM for the second.

Going from `Fc1c(F)c(C(F)(F)F)c(F)c(F)c1N/N=C\c1cccs1` to `Nc1cccc(Nc2nc(OC(C(F)(F)F)C(F)(F)F)nc(OC(C(F)(F)F)C(F)(F)F)n2)c1`, the IC50 rises from 11 µM to 39.6 µM (3.6-fold). The first is the more potent here.

Compared with `CCOc1cc(/C=C/C(=O)c2ccc(C)cc2)ccc1OCC(=O)N(C)C`, `O=C(/C=C\c1ccc(-c2ccccc2)o1)c1ccccc1` is 4-fold lower in IC50: 22 µM for the first, 5.47 µM for the second.

Going from `O=C(NC(=S)NNC(=O)c1ccccc1[N+](=O)[O-])c1ccc(Br)cc1` to `O=[N+]([O-])c1cc(/C=N/O)ccc1Oc1ccccc1Cl`, the IC50 rises from 10.1 µM to 33.9 µM (3.4-fold).

`Clc1ccc(Cl)c2sc(N3CCCC3)nc12` and `O=C(CSCC(=O)N1CCCCC1)Nc1nc(-c2ccc(Cl)s2)cs1` are within 1.5-fold of each other in IC50: 35.7 µM for the first, 37.9 µM for the second.

First: N/C(=N\OC(=O)CCC1CCCC1)c1ccc([N+](=O)[O-])cc1
Second: Nc1ccccc1Sc1ccc(C(F)(F)F)cc1[N+](=O)[O-]
The IC50 of the first is 1.7-fold lower: 16.9 µM for the first, 28.9 µM for the second.

First: CCN(CC1COc2ccccc2O1)C(=S)Nc1ccccc1 (stereo not drawn)
Second: Cc1ccccc1OCC(=O)Nc1ccc(Cc2ccncc2)cc1
The IC50 of the first is 1.6-fold higher: 64.8 µM for the first, 41.7 µM for the second. The second is the more potent here.

`C(=N\N1CCOCC1)/c1cn(-c2ccccc2)nc1-c1ccccc1` and `O=C(Nc1ccc(N2CCN(C(=O)c3ccccc3)CC2)c(Cl)c1)c1ccc(Br)o1` are within 1.5-fold of each other in IC50: 33.7 µM for the first, 41.8 µM for the second.

`C=CC(=O)Oc1ccc(N2Cc3ccccc3C2=O)cc1` and `O=C(OCn1ncc(Br)c(Br)c1=O)c1ccccc1Cl` are within 1.5-fold of each other in IC50: 7.16 µM for the first, 6.12 µM for the second.

Compared with `COc1cccc2sc(Nc3nc(-c4ccccn4)cs3)nc12`, `CC1=NN(c2nc(-c3ccc(Cl)cc3)cs2)C(=O)C1` is 1.7-fold higher in IC50: 20.2 µM for the first, 33.5 µM for the second. The first is the more potent here.

Compared with `CN(C)CCCN1c2ccccc2CCc2ccc(Cl)cc21`, `CC(C)(C)c1ccc(CN2N=Nc3ccccc3S2(=O)=O)cc1` is 6.2-fold lower in IC50: 37.8 µM for the first, 6.1 µM for the second.

`Cc1nn(Cc2ccc(Cl)cc2)c(C)c1NC(=O)c1c(-c2ccccc2)noc1C` showed an IC50 of 76.1 µM.

With `Cc1nn(-c2ccccc2)c(Cl)c1C(=O)N1CCN(c2ncnc3c2cnn3-c2ccccc2)CC1` the IC50 was > 100 µM (inactive).
`COc1cccc(N2C(C(C)=O)=NN(c3ccccc3)C2c2ccc(N3CCOCC3)cc2)c1` (stereo not drawn) was tested, and the IC50 was > 100 µM (inactive).
`COCCNC(=S)N1CCN(c2nc(-c3ccccc3)cs2)CC1` was tested, and the IC50 was > 100 µM (inactive).

From PubChem BioAssay AID493003 (Sanford-Burnham Center for Chemical Genomics, 2010)
